Literature values, collected in US5026825A, “Intranasal calcitonin formulations” (Rhone-Poulenc Rorer Pharmaceuticals Inc., priority 1988, dated 1991).
Ends that are not written are not given here.

Conditions: calcitonin used in Example 6; USP 4,391,747

| Substance | potency |
| --- | --- |
| Des asparagine-3-Calcitonins | 4,300 MRC units/mg |

Same assay, conditions: calcitonins used in Examples 7-10; from cited US patents

| Substance | potency |
| --- | --- |
| [16-Alanine] Calcitonins [16-alanine calcitonin] | 6,200 IU/mg |
| D-Arginine^24 Calcitonins | 5,000 IU/mg |
| Glycine^8 -D-Arginine^24 Calcitonins | 3,500 IU/mg |
| 1A-endo-glycine-calcitonin | 4,650 IU/mg |

Same assay, conditions: in vivo

| Substance | potency (level of hypocalcemic activity) |
| --- | --- |
| chicken calcitonin (CASLSTCVLGKLSQELHKLQTYPRTDVGAGTP; ends and bridges not checked; cysteine pairing not given here; UniProt P07660 82-113, looked up) [natural calcitonin of chicken] | 4,000 to 6,000 MCR (Medical Research Council) U/mg peptide |
| hog calcitonin: natural calcitonin of hog (porcine) (CSNLSTCVLSAYWRNLNNFHRFSGMGFGPETP; ends and bridges not checked; cysteine pairing not given here; UniProt P01259 1-32, looked up) | 100 to 200 MRC U/mg peptide |
| beef calcitonin: natural calcitonin of beef (bovine) (CSNLSTCVLSAYWKDLNNYHRFSGMGFGPETP; ends and bridges not checked; cysteine pairing not given here; UniProt P01260 1-32, looked up) | 100 to 200 MRC U/mg peptide |
| rat calcitonin: natural calcitonin of rat (CGNLSTCMLGTYTQDLNKFHTFPQTSIGVGAP; ends and bridges not checked; cysteine pairing not given here; UniProt P01257 85-116, looked up) | 400 MRC U/mg |
| eel calcitonin | 2,000 to 4,000 MRC U/mg peptide |
| man calcitonin: natural calcitonin of man (human) | 100 to 200 MRC U/mg peptide |
